Measurements published in PubChem BioAssay AID192 (DTP/NCI, 2004).
“And” between values parts separate entries of the source, which are not always exact repeats. Equal entries are not always repeated. Toxic doses and inconclusive results are not listed. Numbered stars: 1 amine (or outer) side, 2 acyl side, 3 side chain; on linkers, the order of the positions; unused ones are H or OH. Bridge positions count the residues as written; N and C are the ends. Square brackets hold non-standard residues; d marks the D form. Peptide text beside a SMILES is read from it. I, II: the chains in the order shown. Actinocin(9to1) = Cc1c2oc3c(C)ccc(C(=O)[*:1])c3nc-2c(C(=O)[*:2])c(N)c1=O; NMeV = CN[CH](C(=O)O)C(C)C; Sar = CNCC(=O)O

System: BDF1 mice, B16 melanoma ip, median survival T/C
Experiment: NCI In Vivo Anticancer Drug Screen. Data for tumor model B16 Melanoma (intraperitoneal) in B6D2F1 (BDF1) mice
Details: endpoint: median survival time, higher = longer survival
In short: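 Survival or tumor size is measured after treatment of tumor-bearing mice and normalised to the vehicle-treated control group.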

[1] = dose: 50.0 mg/kg/injection, schedule: Q01DX009 (ip), vehicle: saline with Tween-80
[2] = dose: 100.0 mg/kg/injection, schedule: Q01DX009 (ip), vehicle: saline with Tween-80
[3] = dose: 200.0 mg/kg/injection, schedule: Q01DX009 (ip), vehicle: saline with Tween-80
[4] = dose: 400.0 mg/kg/injection, schedule: Q01DX009 (ip), vehicle: saline with Tween-80
[5] = dose: 50.0 mg/kg/injection, schedule: Q01DX009 (ip), vehicle: Klucel (hydroxypropylcellulose) (HPC)
[6] = dose: 100.0 mg/kg/injection, schedule: Q01DX009 (ip), vehicle: Klucel (hydroxypropylcellulose) (HPC)
[7] = dose: 3.0 mg/kg/injection, schedule: Q01DX009 (ip), vehicle: saline
[8] = dose: 12.5 mg/kg/injection, schedule: Q01DX009 (ip), vehicle: saline
[9] = dose: 200.0 mg/kg/injection, schedule: Q01DX009 (ip), vehicle: Klucel (hydroxypropylcellulose) (HPC)
[10] = dose: 100.0 mg/kg/injection, schedule: Q04DX003 (ip), vehicle: saline with Tween-80
[11] = dose: 200.0 mg/kg/injection, schedule: Q04DX003 (ip), vehicle: saline with Tween-80
[12] = dose: 0.75 mg/kg/injection, schedule: Q01DX009 (ip), vehicle: saline
[13] = dose: 1.5 mg/kg/injection, schedule: Q01DX009 (ip), vehicle: saline
[14] = dose: 25.0 mg/kg/injection, schedule: Q01DX009 (ip), vehicle: saline
[15] = dose: 50.0 mg/kg/injection, schedule: Q01DX009 (ip), vehicle: saline
[16] = dose: 100.0 mg/kg/injection, schedule: Q01DX009 (ip), vehicle: saline
[17] = dose: 200.0 mg/kg/injection, schedule: Q01DX009 (ip), vehicle: saline

CC(C)C(NC(=O)C(N)CCC(=O)O)C(=O)O (stereo not drawn) (H-Glu-Val-OH; configuration not given here)
T/C [1]: 109 % of control
T/C [2]: 104 % of control
T/C [3]: 108 % of control
T/C [4]: 98 % of control

O=[N+]([O-])/C=C/c1ccc2ccccc2c1
T/C [5]: 95 % of control
T/C [6]: 107 % of control

O=[N+]([O-])O.[Cu+2].[NH-]CC[NH-].[NH-]CC[NH-]
T/C [7]: 116 % of control
T/C (dose: 6.0 mg/kg/injection, schedule: Q01DX009 (ip), vehicle: saline): 122 % of control
T/C (dose: 12.0 mg/kg/injection, schedule: Q01DX009 (ip), vehicle: saline): 102 % of control
T/C [8]: 87 % of control

CC(Cc1ccccc1)NCCc1c2ccccc2nc2ccccc12 (centres undefined)
T/C (dose: 12.5 mg/kg/injection, schedule: Q01DX009 (ip), vehicle: Klucel (hydroxypropylcellulose) (HPC)): 92 % of control
T/C (dose: 25.0 mg/kg/injection, schedule: Q01DX009 (ip), vehicle: Klucel (hydroxypropylcellulose) (HPC)): 86 % of control and 100 % of control
T/C [5]: 90 % of control and 92 % of control
T/C [9]: 92 % of control

Cc1nc(C(N)=O)c(=O)[nH]c1C
T/C (dose: 12.5 mg/kg/injection, schedule: Q04DX003 (ip), vehicle: saline): 97 % of control
T/C (dose: 25.0 mg/kg/injection, schedule: Q04DX003 (ip), vehicle: saline): 102 % of control
T/C (dose: 50.0 mg/kg/injection, schedule: Q04DX003 (ip), vehicle: saline with Tween-80): 97 % of control
T/C (dose: 50.0 mg/kg/injection, schedule: Q04DX003 (ip), vehicle: saline): 100 % of control
T/C [10]: 102 % of control
T/C [11]: 100 % of control
T/C (dose: 400.0 mg/kg/injection, schedule: Q04DX003 (ip), vehicle: saline with Tween-80): 104 % of control

COc1cccc2c1CCC1=C2CC=C2CC3(CCC21C)OCCO3 (centres undefined)
T/C (dose: 100.0 mg/kg/injection, schedule: Q04DX003 (sc), vehicle: steriod suspending solution): 104 % of control
T/C (dose: 200.0 mg/kg/injection, schedule: Q04DX003 (sc), vehicle: steriod suspending solution): 86 % of control
T/C (dose: 400.0 mg/kg/injection, schedule: Q04DX003 (sc), vehicle: steriod suspending solution): 97 % of control

O=C1C(=O)C(Cl)=C(Cl)C(Cl)=C1Cl
T/C [12]: 106 % of control
T/C [13]: 93 % of control
T/C [7]: 93 % of control

CC(C)c1ccc(NC(=O)Nc2cccc3ccccc23)cc1
T/C [6]: 100 % of control
T/C [9]: 97 % of control

NN1CCCC1
T/C [14]: 110 % of control
T/C [15]: 102 % of control
T/C [16]: 94 % of control

C=C(C)C12CC(C)C34OC5(CCCCCCCC(C)C6C(C)C(OC(=O)c7ccccc7)C(O)(C(O)C7(COC(=O)CCCCCCCCCCCCCCC)OC7C3C1O5)C64)O2 (centres undefined)
T/C (dose: 1.5 micrograms/kg/injection, schedule: Q01DX009 (ip), vehicle: saline): 107 % of control
T/C (dose: 1.9 micrograms/kg/injection, schedule: Q01DX009 (ip), vehicle: Klucel (hydroxypropylcellulose) (HPC)): 102 % of control
T/C (dose: 3.1 micrograms/kg/injection, schedule: Q01DX009 (ip), vehicle: saline): 100 % of control
T/C (dose: 3.8 micrograms/kg/injection, schedule: Q01DX009 (ip), vehicle: Klucel (hydroxypropylcellulose) (HPC)): 88 % of control
T/C (dose: 6.2 micrograms/kg/injection, schedule: Q01DX009 (ip), vehicle: saline): 104 % of control
T/C (dose: 7.5 micrograms/kg/injection, schedule: Q01DX009 (ip), vehicle: Klucel (hydroxypropylcellulose) (HPC)): 98 % of control
T/C (dose: 12.5 micrograms/kg/injection, schedule: Q01DX009 (ip), vehicle: saline): 95 % of control
T/C (dose: 15.0 micrograms/kg/injection, schedule: Q01DX009 (ip), vehicle: Klucel (hydroxypropylcellulose) (HPC)): 87 % of control
T/C (dose: 25.0 micrograms/kg/injection, schedule: Q01DX009 (ip), vehicle: saline): 102 % of control
T/C (dose: 50.0 micrograms/kg/injection, schedule: Q01DX009 (ip), vehicle: saline): 96 % of control

COCCOCCN1CCN(CCCN2c3ccccc3Sc3ccc(C(F)(F)F)cc32)CC1
T/C (dose: 0.31 mg/kg/injection, schedule: Q01DX009 (ip), vehicle: saline): 106 % of control
T/C (dose: 0.62 mg/kg/injection, schedule: Q01DX009 (ip), vehicle: saline): 101 % of control
T/C (dose: 1.25 mg/kg/injection, schedule: Q01DX009 (ip), vehicle: saline): 108 % of control
T/C (dose: 2.5 mg/kg/injection, schedule: Q01DX009 (ip), vehicle: saline): 100 % of control

Cc1c2oc3c(C)ccc(C(=O)NC4C(=O)NC(C(C)C)C(=O)N5CCCC5C(=O)N(C)CC(=O)N(C)C(C(C)C)C(=O)OC4C)c3nc-2c(C(=O)NC2C(=O)NC(C(C)C)C(=O)N3CCCC3C(=O)N(C)CC(=O)N(C)C(C(C)C)C(=O)OC2C)c(N)c1=O (centres undefined) (I: TVP[Sar][NMeV] / II: TVP[Sar][NMeV]; ester I:1-I:C, II:1-II:C; linker I:N-II:N via Actinocin(9to1); configuration not given here)
T/C (dose: 0.06 mg/kg/injection, schedule: Q01DX009 (ip), vehicle: saline): 165 % of control
T/C (dose: 0.12 mg/kg/injection, schedule: Q01DX009 (ip), vehicle: saline): 177 % of control and 180 % of control

CCO/C=C1\SC(=S)N(c2ccc(C(=O)O)cc2)C1=O
T/C (dose: 12.5 mg/kg/injection, schedule: Q01DX009 (ip), vehicle: saline with Tween-80): 107 % of control
T/C (dose: 25.0 mg/kg/injection, schedule: Q01DX009 (ip), vehicle: saline with Tween-80): 115 % of control
T/C [1]: 110 % of control

Cc1ccc(S(=O)(=O)Oc2ccc(-c3ccc(Br)cc3)cc2)cc1
T/C [1]: 96 % of control
T/C [2]: 93 % of control
T/C [3]: 86 % of control
T/C [4]: 91 % of control

CCOC(=O)NC1CCC1NC(=O)OCC (centres undefined)
T/C [10]: 92 % of control
T/C [11]: 95 % of control

O=C(O)c1cccc2c1S(=O)(=O)c1ccccc1C2=O
T/C (dose: 75.0 mg/kg/injection, schedule: Q01DX009 (ip), vehicle: Klucel (hydroxypropylcellulose) (HPC)): 100 % of control
T/C (dose: 150.0 mg/kg/injection, schedule: Q01DX009 (ip), vehicle: Klucel (hydroxypropylcellulose) (HPC)): 97 % of control
T/C (dose: 300.0 mg/kg/injection, schedule: Q01DX009 (ip), vehicle: Klucel (hydroxypropylcellulose) (HPC)): 100 % of control

Clc1cc(Cl)c(C[N+]23CN4CN(CN(C4)C2)C3)cc1Cl
T/C [14]: 117 % of control
T/C [15]: 108 % of control
T/C [16]: 111 % of control
T/C [17]: 122 % of control

CC(C)C(C(=O)c1ccccc1)C(c1ccccc1)c1ccccc1 (centres undefined)
T/C (dose: 100.0 mg/kg/injection, schedule: Q04DX003 (ip), vehicle: other): 92 % of control
T/C (dose: 200.0 mg/kg/injection, schedule: Q04DX003 (ip), vehicle: other): 94 % of control

COc1cc(C(=O)OCCCN2CCOCC2)cc(OC)c1OC
T/C (dose: 0.78 mg/kg/injection, schedule: Q01DX009 (ip), vehicle: saline): 105 % of control
T/C (dose: 1.56 mg/kg/injection, schedule: Q01DX009 (ip), vehicle: saline): 110 % of control
T/C (dose: 3.12 mg/kg/injection, schedule: Q01DX009 (ip), vehicle: saline): 110 % of control
T/C (dose: 6.25 mg/kg/injection, schedule: Q01DX009 (ip), vehicle: saline): 105 % of control
T/C [8]: 110 % of control
T/C [17]: 89 % of control

FC(F)(F)c1ccc2c(c1)N(CCCN1CCN(CCN3CCOCC3)CC1)c1ccccc1S2
T/C (dose: 0.37 mg/kg/injection, schedule: Q01DX009 (ip), vehicle: saline): 97 % of control
T/C [12]: 87 % of control
T/C [13]: 115 % of control
T/C [7]: 112 % of control

O=C(O)c1cc(S(=O)O)ccc1O
T/C (dose: 10.0 mg/kg/injection, schedule: Q01DX009 (ip), vehicle: saline): 103 % of control
T/C (dose: 20.0 mg/kg/injection, schedule: Q01DX009 (ip), vehicle: saline): 106 % of control
T/C (dose: 40.0 mg/kg/injection, schedule: Q01DX009 (ip), vehicle: saline): 98 % of control

CC[n+]1ccc(Nc2ccc(NC(=O)c3ccc(C(=O)Nc4ccc(Nc5cc[n+](CC)c(N)n5)cc4)cc3)cc2)nc1N
T/C (dose: 25.0 mg/kg/injection, schedule: Q01DX009 (ip), vehicle: suspension in saline): 162 % of control
T/C (dose: 50.0 mg/kg/injection, schedule: Q01DX009 (ip), vehicle: suspension in saline): 163 % of control

O=C(O)C1CC[N-]CC1.O=C(O)C1CC[N-]CC1.O=C(O)C1CC[N-]CC1.O=C(O)C1CC[N-]CC1.[Cl][Rh][Cl]
T/C [14]: 104 % of control
T/C [15]: 94 % of control
T/C [16]: 102 % of control
